Results: patent US6703412B1 (priority 2002, dated 2004)

How the values were obtained:
mice = mice given 800 mg/kg; cited from earlier work
sleeplessness [1] = test: Example 2: melatonin capsules for subjects who awake midway during normal sleep period; type: in vivo, human; details: 1.5 mg capsules after 15 minutes of trying to fall back asleep
From the text: Subjects are those who awake at about midway during their normal sleep period and once awake have trouble falling back asleep.

[2] = 2-100 mg doses, man; cited from earlier work
sleeplessness [3] = test: Example 1: melatonin capsules for subjects having difficulty falling asleep at normal bedtime; type: in vivo, human; details: 1.5 mg capsules after one hour of trying to fall asleep

Which death (mice) does the source give for `COc1ccc2[nH]cc(CCNC(C)=O)c2c1` [Melatonin, N-acetyl-5-methyoxytryptamine] here?
Its death is “failed to produce death”.

And the sleep maintenance (sleeplessness [1])?
Its sleep maintenance is “sleep through the remainder of the night”.

What about the state on awakening (sleeplessness [1]) of the same compound?
Its state on awakening is “refreshed, and not sleepy or drowsy”.

And the “time to fall asleep” value (sleeplessness [1])?
The value was at most 20 min.

What about the time until awakening (sleeplessness [1]) of the same compound?
Its time until awakening is 3 to 4 h.

And the biological half-life [2]?
Its biological half-life is 32-48 minutes.

And the sleep maintenance (sleeplessness [3])?
The sleep maintenance was “sleep through the night”.

What about the state on awakening (sleeplessness [3]) of the same compound?
The state on awakening was “alert, without any decrement in faculties”.

What about the “time to fall asleep” value (sleeplessness [3]) of the same compound?
The value was at most 20 min.
